The subject of this assay is 5-LO. As to the kind of experiment: Test b): A23187-challenged heparinised human blood, LTB4 radioimmunoassay. It is filed as cell-based. The conditions noted are these: A23187 challenge. As to the method:
b) An in vitro assay system involving incubating a test compound with heparinised human blood, prior to challenge with the calcium ionophore A23187 and then indirectly measuring the inhibitory effects on 5-LO by assaying the amount of LTB4 using the specific radioimmunoassay described by Carey and Forder (F. Carey and R. A. Forder, Brit. J. Pharmacol. 1985, 84, 34P) which involves the use of a protein-LTB4 conjugate produced using the procedure of Young et alia (Prostaglandins, 1983, 26(4), 605-613). The effects of a test compound on the enzyme cyclooxygenase (which is involved in the alternative metabolic pathway for arachidonic acid and gives rise to prostaglandins, thromboxanes and related metabolites) may be measured at the same time using the specific radioimmunoassay for thromboxane B2 (TxB2) described by Carey and Forder (see above). This test provides an indication of the effects of a test compound against 5-LO and also cyclooxygenase in the presence of blood cells and proteins. It permits the selectivity of the inhibitory effect on 5-LO or cyclooxygenase to be assessed.

The IC50 is the point on the concentration scale where inhibition reaches its midpoint. A higher IC50 goes with weaker potency in that assay.

Structures are written as SMILES.

`CO[C@H]1CCC[C@@]1(OC)c1cc(F)cc(Sc2ccc3ccccc3c2)c1` (racemic) [(1RS,2SR)-1-[5-fluoro-3-(naphth-2-ylthio)phenyl]-1,2-dimethoxycyclopentane] registered a half-inhibitory concentration (IC50) of roughly 0.2 µM.
Next, `C=CCO[C@@]1(c2cc(F)cc(Sc3ccc4ccccc4c3)c2)CCC[C@@H]1OC` (racemic) [(1RS,2SR)-1-allyloxy-1-[5-fluoro-3-(naphth-2-ylthio)phenyl]-2-methoxycyclopentane]: roughly 0.2 µM.
